Measurements: patent US10370355B2, “Tetrahydroisoquinoline derivatives” (UCB Biopharma SPRL, priority 2016, dated 2019)

Target: T1, dopamine D1 receptor (Homo sapiens, UniProt P21728)
T1 construct: host or cells: LMtk (Ltk-) mouse fibroblast cells
Experiment: cAMP HTRF potentiation assay (presence of EC20 dopamine)
Format: cell-based
Settings: potentiation of cAMP in presence of EC20 dopamine (1.1 nM); LMtk (Ltk-) mouse fibroblast cells expressing the dopamine D1 receptor
Source text: The present assay allows to measure respectively the effects of compounds of the Examples in the absence of dopamine (“activation assay”) and the effects of compounds of the Examples in the presence of dopamine (“potentiation assay”).
The potentiation assay measures the ability of compounds to increase the levels of cAMP produced by a low-threshold concentration of dopamine. The concentration of dopamine used ([EC20]) is designed to produce 20% stimulation compared to the maximal response (100%) seen with increasing the concentration of dopamine. To measure this potentiation we incubate increasing concentrations of the compound with the [EC2O] of dopamine and measure the potentiation as increases in cAMP production. The pEC50 of a compound is the −log 10 of the concentration of the compound which produces 50% of the potentiation of the cAMP levels and the Erel is the relative efficacy, defined as the maximal % potentiation produced by the compound compared to the maximal response produced by increasing concentrations of dopamine (Erel of 1=dopamine maximum response).
Cells were cultured at 37° C. in a humidified atmosphere of 5% CO2. Cells were grown in DMEM-F12+GlutaMAX™-I medium (GIBCO®, Invitrogen, Merelbeke, Belgium) containing 10% fetal bovine serum (BioWhittaker®, Lonza, Verviers, Belgium), 400 μg/mL Geneticin (GIBCO®), 100 IU/mL Penicillin and 100 IU/mL Streptomycin (Pen-Strep solution, BioWhittaker®).
The measurement of changes in intracellular cyclic adenosinemonophopshpate (cAMP) was determined using the HTRF cAMP dynamic assay kit from CisBio (Codolet, France). Using homogenous time-resolved fluoresence technology, the assay is based on competition between native cAMP produced by cells and cAMP labelled with the dye d2. The tracer binding is determined by an anti-cAMP antibody labeled with cryptate. The effects of the compound alone (agonism) was determined by performing the assay in the absence of dopamine, whilst the effect of the compound as a positive allosteric modulator (PAM) was determined in the presence of an EC20 concentration of dopamine. Cells (20,000 per well) are incubated in 384 plates for 1 hour at room temperature in a final volume of 20 μLHBSS (Lonza, with calcium, magnesium and HEPES buffer 20 mM, pH 7.4) containing: isobutyl methylxanthine (Sigma, 0.1 mM final), varying concentrations of test compound (typically […] to 10^−4.5M) in the presence and absence of dopamine (1.1 nM final). The reaction is then terminated and the cells lysed by adding the d2 detection reagent in lysis buffer (10 microL) and the cryptate reagent in lysis buffer (10 microl) according to manufacturer's instructions. This is then incubated for a further 60 min at room temperature and changes in HTRF fluorescent emission ratio determined according to manufacturer's instructions using an Envision plate reader (Perkin Elmer, Zaventem, Belgium) with laser excitation. All incubations were performed in duplicate and results were compared to a concentration-effect curve to dopamine. (10^−11M to 10^−6M).
Data was analyzed using Excel and PRISM (GraphPad Software) to obtain pEC50 and Erel using the 4-parameter logistic equation (DeLean et al, 1978) where Erel is the fitted maximal response of the test compound minus basal expressed as a percentage relative to that obtained with dopamine which was defined as 100%.

T1 sequence (P21728 whole entry): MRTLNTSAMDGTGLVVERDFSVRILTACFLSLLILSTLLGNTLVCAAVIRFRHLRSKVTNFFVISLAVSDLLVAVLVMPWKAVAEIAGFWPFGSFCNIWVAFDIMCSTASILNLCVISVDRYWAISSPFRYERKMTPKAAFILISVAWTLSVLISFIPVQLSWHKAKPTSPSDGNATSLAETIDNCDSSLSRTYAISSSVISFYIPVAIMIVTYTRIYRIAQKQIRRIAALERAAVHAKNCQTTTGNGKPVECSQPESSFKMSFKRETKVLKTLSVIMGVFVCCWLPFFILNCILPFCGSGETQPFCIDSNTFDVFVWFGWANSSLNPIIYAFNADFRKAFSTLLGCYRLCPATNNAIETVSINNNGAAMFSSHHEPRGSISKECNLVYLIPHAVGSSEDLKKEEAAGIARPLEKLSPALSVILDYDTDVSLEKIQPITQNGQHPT

- EC50: 31.6 to 100 nM
SMILES: C[C@H]1c2cccc(C(O)(CF)CF)c2CCN1C(=O)Cc1c(Cl)cnc2c1c(Cl)nn2C [Example 23, 2-(3,5-dichloro-1-methyl-pyrazolo[3,4-b]pyridin-4-yl)-1-[(1S)-5-[2-fluoro-1-(fluoromethyl)-1-hydroxy-ethyl]-1-methyl-3,4-dihydro-1H-isoquinolin-2-yl]ethanone]
